According to PMC5540273, “Progress towards a public chemogenomic set for protein kinases and a call for contributions” (PLoS ONE, 2017):

Tests used:
Assay in all cases: KINOMEscan competition binding
MAP3K1 = MAP3K1 (Homo sapiens, UniProt Q13233); conditions: read-out: %Inh MAP3K1
BMPR1A = BMPR1A (Homo sapiens, UniProt P36894); conditions: read-out: %Inh BMPR1A
CHEK1 = target: T1, CHEK1 (Homo sapiens, UniProt O14757); conditions: read-out: %Inh CHEK1
T1 sequence (O14757 1-476): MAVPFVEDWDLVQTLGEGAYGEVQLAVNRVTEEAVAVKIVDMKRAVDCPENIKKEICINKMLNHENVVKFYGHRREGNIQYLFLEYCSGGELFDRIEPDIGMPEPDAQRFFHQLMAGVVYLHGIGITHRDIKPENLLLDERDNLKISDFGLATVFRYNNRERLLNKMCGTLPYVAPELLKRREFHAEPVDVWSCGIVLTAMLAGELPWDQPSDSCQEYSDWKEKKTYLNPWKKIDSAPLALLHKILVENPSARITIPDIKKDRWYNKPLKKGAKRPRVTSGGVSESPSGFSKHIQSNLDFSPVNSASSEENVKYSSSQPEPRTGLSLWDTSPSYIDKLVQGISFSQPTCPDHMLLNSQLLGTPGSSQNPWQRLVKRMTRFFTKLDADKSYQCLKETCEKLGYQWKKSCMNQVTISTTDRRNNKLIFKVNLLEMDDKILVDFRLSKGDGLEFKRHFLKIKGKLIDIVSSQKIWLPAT

HIPK2 = HIPK2 (Homo sapiens, UniProt Q9H2X6); conditions: read-out: %Inh HIPK2
Sequence of HIPK2 (Q9H2X6 whole entry): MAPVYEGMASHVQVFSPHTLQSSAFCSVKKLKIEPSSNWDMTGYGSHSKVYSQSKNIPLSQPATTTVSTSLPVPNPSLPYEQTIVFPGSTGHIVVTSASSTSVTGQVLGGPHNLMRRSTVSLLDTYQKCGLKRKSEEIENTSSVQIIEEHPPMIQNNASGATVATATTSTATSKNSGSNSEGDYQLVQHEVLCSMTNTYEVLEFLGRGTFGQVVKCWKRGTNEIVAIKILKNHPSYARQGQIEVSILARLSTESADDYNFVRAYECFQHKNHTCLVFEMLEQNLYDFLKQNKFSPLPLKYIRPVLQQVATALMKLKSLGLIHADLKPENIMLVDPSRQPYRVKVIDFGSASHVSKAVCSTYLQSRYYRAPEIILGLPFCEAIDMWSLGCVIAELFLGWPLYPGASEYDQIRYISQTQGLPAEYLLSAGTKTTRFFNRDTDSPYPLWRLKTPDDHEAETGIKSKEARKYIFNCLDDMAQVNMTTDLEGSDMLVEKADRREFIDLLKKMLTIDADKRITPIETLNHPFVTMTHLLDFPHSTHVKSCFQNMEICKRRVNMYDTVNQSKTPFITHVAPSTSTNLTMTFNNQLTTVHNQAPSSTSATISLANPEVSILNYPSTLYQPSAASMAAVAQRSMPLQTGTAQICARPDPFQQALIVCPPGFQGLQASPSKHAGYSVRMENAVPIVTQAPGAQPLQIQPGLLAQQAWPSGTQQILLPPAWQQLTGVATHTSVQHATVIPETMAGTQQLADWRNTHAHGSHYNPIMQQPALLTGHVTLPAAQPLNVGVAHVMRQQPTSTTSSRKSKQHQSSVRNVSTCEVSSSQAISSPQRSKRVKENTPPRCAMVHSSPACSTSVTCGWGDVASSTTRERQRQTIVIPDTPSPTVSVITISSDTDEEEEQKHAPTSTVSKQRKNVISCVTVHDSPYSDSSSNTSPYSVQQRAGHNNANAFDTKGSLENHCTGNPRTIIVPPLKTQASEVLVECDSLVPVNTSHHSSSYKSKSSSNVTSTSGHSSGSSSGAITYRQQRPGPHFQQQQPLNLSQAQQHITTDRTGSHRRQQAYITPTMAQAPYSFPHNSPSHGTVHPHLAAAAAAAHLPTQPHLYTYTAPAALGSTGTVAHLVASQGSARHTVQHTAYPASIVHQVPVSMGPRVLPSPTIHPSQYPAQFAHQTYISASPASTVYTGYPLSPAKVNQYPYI

CAMKK2 = CAMKK2 (Homo sapiens, UniProt Q96RR4); conditions: read-out: %Inh CAMKK2
CSNK1A1L = target: T2, CSNK1A1L (Homo sapiens, UniProt Q8N752); conditions: read-out: %Inh CSNK1A1L
T2 sequence (Q8N752 1-337): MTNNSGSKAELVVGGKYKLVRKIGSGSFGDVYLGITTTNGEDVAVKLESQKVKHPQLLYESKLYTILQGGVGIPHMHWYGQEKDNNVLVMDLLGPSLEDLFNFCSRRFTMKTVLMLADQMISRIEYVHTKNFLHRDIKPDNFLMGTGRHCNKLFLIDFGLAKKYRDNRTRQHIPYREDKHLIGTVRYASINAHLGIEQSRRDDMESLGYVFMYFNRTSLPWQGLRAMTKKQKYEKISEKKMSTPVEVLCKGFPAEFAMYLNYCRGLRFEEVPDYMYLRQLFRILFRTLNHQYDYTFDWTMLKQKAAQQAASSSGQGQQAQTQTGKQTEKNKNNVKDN

CAMK1B = CAMK1B (Homo sapiens, UniProt Q6P2M8); conditions: read-out: %Inh CAMK1B
Sequence of CAMK1B (Q6P2M8 whole entry): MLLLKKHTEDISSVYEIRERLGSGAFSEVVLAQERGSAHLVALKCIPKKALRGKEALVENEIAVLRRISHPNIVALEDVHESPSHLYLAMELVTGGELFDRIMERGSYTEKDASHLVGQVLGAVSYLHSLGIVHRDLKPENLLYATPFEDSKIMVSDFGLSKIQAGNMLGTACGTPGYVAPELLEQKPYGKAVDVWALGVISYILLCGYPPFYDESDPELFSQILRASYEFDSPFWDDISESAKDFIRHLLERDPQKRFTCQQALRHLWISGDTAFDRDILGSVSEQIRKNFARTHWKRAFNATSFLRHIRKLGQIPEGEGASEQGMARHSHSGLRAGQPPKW

FGFR4 = FGFR4 (Homo sapiens, UniProt P22455); conditions: read-out: %Inh FGFR4
Sequence of FGFR4 (P22455 22-802): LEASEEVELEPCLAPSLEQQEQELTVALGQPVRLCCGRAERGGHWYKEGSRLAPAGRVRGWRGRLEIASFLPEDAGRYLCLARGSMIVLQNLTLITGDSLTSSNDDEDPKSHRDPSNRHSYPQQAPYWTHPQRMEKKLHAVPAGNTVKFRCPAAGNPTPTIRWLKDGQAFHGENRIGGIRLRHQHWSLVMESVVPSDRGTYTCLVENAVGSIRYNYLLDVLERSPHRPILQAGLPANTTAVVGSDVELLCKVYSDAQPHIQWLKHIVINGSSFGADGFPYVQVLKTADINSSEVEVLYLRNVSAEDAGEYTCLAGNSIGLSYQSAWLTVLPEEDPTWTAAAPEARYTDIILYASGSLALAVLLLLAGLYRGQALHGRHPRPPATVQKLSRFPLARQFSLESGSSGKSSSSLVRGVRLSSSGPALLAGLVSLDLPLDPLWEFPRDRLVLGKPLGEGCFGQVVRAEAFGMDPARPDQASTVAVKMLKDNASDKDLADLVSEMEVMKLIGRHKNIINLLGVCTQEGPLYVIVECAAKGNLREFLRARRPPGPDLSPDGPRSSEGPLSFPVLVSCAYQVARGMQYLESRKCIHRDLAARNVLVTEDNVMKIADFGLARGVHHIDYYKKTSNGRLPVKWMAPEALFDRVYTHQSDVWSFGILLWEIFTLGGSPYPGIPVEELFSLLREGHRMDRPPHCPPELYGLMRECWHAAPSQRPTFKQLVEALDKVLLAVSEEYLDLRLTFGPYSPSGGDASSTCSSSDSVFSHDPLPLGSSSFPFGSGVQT

ITK = target: T3, ITK (Homo sapiens, UniProt Q08881); conditions: read-out: %Inh ITK
T3 sequence (Q08881 1-620): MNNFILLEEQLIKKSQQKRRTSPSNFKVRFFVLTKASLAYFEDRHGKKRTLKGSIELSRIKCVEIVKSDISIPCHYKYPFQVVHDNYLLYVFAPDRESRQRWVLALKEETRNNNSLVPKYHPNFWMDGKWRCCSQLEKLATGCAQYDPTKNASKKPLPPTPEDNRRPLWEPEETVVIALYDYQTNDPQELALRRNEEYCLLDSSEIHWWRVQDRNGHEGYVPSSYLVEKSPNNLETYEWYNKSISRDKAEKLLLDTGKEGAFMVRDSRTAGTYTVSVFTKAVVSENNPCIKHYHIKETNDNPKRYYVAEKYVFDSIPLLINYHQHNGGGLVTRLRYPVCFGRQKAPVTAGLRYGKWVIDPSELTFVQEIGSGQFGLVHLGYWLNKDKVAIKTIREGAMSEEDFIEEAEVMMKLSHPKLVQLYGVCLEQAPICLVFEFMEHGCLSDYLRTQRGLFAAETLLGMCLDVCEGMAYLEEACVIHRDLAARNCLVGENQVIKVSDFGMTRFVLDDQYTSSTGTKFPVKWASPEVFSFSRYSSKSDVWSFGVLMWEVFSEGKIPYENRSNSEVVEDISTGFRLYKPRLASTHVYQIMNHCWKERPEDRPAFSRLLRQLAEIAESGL

ABL1-nonphosphorylated = ABL1-nonphosphorylated (Homo sapiens, UniProt P00519); conditions: read-out: %Inh ABL1-nonphosphorylated
ACVR1 = target: T4, ACVR1 (Homo sapiens, UniProt Q04771); conditions: read-out: %Inh ACVR1
T4 sequence (Q04771 21-509): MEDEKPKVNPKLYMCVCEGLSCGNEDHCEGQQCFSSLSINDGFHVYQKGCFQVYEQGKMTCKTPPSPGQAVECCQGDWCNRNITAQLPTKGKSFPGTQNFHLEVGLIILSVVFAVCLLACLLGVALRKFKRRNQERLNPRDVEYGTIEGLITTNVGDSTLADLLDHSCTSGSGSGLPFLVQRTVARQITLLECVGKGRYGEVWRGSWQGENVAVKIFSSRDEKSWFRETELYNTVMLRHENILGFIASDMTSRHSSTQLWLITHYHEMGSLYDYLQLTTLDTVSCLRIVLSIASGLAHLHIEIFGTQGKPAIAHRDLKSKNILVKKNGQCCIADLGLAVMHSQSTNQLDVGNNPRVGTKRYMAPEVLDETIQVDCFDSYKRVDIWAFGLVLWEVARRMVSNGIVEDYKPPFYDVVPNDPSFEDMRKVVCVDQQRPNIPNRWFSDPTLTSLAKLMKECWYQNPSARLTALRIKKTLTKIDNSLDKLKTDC

BMPR1B = BMPR1B (Homo sapiens, UniProt O00238); conditions: read-out: %Inh BMPR1B
Sequence of BMPR1B (O00238 14-502): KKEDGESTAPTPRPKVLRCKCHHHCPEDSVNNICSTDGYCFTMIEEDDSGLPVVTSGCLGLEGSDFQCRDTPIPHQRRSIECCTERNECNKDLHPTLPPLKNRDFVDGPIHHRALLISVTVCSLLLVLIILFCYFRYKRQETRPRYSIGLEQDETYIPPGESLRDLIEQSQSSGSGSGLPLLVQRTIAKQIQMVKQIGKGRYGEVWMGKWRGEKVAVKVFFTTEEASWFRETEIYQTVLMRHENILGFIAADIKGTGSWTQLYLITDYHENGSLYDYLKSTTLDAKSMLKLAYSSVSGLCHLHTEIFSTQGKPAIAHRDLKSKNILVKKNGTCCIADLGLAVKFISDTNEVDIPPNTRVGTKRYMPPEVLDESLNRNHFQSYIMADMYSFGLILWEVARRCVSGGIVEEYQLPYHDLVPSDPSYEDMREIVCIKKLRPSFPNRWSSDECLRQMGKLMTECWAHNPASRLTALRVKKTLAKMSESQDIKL

FYN = FYN (Homo sapiens, UniProt P06241); conditions: read-out: %Inh FYN
Sequence of FYN (P06241 whole entry): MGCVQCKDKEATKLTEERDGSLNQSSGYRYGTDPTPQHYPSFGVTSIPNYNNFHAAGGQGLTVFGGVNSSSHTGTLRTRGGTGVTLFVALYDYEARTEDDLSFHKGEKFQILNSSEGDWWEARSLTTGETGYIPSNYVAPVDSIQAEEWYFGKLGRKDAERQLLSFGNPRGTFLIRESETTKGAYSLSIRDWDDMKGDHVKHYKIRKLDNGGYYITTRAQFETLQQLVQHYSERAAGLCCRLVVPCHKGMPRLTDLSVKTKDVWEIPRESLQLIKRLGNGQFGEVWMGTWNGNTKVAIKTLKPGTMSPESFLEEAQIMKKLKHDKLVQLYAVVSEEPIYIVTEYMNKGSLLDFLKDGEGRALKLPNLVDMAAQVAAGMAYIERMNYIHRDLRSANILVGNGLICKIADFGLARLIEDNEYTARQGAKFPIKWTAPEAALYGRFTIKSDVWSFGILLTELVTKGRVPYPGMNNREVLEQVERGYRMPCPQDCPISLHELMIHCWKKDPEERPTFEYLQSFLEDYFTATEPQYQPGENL

Sequence of MAP3K1 (Q13233 whole entry): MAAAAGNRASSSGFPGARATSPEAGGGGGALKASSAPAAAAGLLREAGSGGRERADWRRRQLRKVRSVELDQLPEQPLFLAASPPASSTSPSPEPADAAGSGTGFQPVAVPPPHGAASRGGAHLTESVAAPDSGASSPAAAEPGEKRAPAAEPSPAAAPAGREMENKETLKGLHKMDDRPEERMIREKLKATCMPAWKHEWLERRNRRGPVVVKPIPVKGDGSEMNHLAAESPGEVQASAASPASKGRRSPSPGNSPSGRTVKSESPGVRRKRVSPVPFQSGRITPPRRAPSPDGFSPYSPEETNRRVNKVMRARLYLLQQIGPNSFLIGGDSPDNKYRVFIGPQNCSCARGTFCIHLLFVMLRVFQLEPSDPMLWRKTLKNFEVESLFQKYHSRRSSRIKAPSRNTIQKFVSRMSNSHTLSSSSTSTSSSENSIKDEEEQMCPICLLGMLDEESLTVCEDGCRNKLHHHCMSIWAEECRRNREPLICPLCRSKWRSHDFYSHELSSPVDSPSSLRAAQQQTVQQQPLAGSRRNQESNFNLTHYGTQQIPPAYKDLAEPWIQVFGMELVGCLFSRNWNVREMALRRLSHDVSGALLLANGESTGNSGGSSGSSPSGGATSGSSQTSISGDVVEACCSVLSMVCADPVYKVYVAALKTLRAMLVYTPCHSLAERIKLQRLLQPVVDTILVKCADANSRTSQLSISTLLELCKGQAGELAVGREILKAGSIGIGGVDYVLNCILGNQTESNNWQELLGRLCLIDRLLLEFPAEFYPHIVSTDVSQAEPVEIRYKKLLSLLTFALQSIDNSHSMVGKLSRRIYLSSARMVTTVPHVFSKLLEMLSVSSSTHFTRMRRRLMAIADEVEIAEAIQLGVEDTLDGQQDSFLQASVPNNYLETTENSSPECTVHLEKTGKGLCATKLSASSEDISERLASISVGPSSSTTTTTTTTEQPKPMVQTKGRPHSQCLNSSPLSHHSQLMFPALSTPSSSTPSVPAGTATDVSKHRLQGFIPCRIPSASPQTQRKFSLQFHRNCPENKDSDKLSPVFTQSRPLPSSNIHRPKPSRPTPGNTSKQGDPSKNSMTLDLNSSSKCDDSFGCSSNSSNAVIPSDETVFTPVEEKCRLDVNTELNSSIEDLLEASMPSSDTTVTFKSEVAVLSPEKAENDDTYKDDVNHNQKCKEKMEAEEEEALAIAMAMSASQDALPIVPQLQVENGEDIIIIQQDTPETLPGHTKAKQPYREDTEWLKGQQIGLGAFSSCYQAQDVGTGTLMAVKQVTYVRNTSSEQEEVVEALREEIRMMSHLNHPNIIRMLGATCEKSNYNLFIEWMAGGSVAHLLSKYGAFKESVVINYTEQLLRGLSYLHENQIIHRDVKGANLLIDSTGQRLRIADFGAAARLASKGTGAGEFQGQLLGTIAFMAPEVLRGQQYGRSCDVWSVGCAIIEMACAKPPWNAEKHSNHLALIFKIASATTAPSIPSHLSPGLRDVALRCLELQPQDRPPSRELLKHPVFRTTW

| SMILES | inhibition at 1 µM (MAP3K1) | inhibition at 1 µM (BMPR1A) | inhibition at 1 µM (CHEK1) | inhibition at 1 µM (HIPK2) | inhibition at 1 µM (CAMKK2) | inhibition at 1 µM (CSNK1A1L) | inhibition at 1 µM (CAMK1B) | inhibition at 1 µM (FGFR4) | inhibition at 1 µM (ITK) | inhibition at 1 µM (ABL1-nonphosphorylated) | inhibition at 1 µM (ACVR1) | inhibition at 1 µM (BMPR1B) | inhibition at 1 µM (FYN) |
| --- | --- | --- | --- | --- | --- | --- | --- | --- | --- | --- | --- | --- | --- |
| Cn1cc(-c2cnc(N)c3c(-c4ccc5c(c4)CCN5C(=O)Cc4ccccc4)csc23)cn1 [UNC10225012A] | 4% | 1% | 9% | 0% | 19% | 0% | 0% | 0% | 23% | 99.7% | 7% | 6% | 25% |
| O=c1cc(N2CCOCC2)nc2n(Cc3cccc(Cl)c3Cl)c(C3CC3)nn12 [UNC10225469A] | 14% | 15% | 15% | 0% | 8% | 0% | 0% | 0% | 4% | 28% | 0% | 0% | 6% |
| COc1cccc(OC)c1C(=O)Nc1cccc(-c2nn3ccccc3c2-c2ccnc(Nc3cccc(F)c3)n2)c1 [UNC10225310A] | 0% | 9% | 13% | 0% | 0% | 0% | 0% | 0% | 93.8% | 28% | 17% | 21% | 22% |
| CS(=O)(=O)Cc1ccc(Nc2nccc(-c3c(-c4cccc(NC(=O)C5CCCCC5)c4)nn4ncccc34)n2)cc1 [UNC10225159A] | 30% | 0% | 12% | 14% | 0% | 0% | 0% | 6% | 6% | 8% | 18% | 19% | 1% |
| Cc1ccc(NC(=O)Nc2cccc(C(F)(F)F)c2)cc1 [UNC10225187A] | 0% | 94.6% | 5% | 0% | 19% | 0% | 0% | 0% | 12% | 49% | 10% | 0% | 0% |
